Test results: PubChem BioAssay (NCI)
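Each compound was tested at five concentrations against cells in 96-well plates for 48 hours. At the GI50, growth is halved. TGI: concentration producing complete growth inhibition.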

Tests used:
Test in all cases: inhibition of tumour cell growth, NCI panel, 48 h
[1] = tested on: UACC-257 melanoma
[2] = tested on: SK-MEL-5 melanoma
[3] = tested on: SW-620 colon
[4] = tested on: SNB-19 CNS
[5] = tested on: IGROV1 ovarian
[6] = tested on: ACHN renal
[7] = tested on: HCT-116 colon
[8] = tested on: A498 renal
[9] = tested on: SK-MEL-2 melanoma
[10] = tested on: OVCAR-4 ovarian

Compound	GI50 [1]	TGI [1]	GI50 [2]	TGI [2]	GI50 [3]	TGI [3]	GI50 [4]	TGI [4]	GI50 [5]	TGI [5]	GI50 [6]	TGI [6]	GI50 [7]	TGI [7]	GI50 [8]	TGI [8]	GI50 [9]	TGI [9]	GI50 [10]	TGI [10]
CC(C)(C)CC(C)(C)NCc1cc(C(C)(C)C)cc(CNC(C)(C)CC(C)(C)C)c1O	2210 nM	6.52 µM	1610 nM	2.96 µM	2790 nM	12.4 µM	5.24 µM	17.8 µM	3.93 µM	15.9 µM	2810 nM	10.8 µM	2100 nM	5.78 µM	2530 nM	11.3 µM	2.84 µM	6.6 µM	2620 nM	10.9 µM
Cc1cn2c(/C=N/N=C(N)N)c(-c3cccs3)nc2s1	2540 nM	6.14 µM	376 nM	2.19 µM	1710 nM	4.02 µM	11.9 µM	35.8 µM	10.5 µM	27.1 µM	2120 nM	5 µM	1350 nM	2.63 µM			28.8 µM	> 100 µM		
C=C[C@@]1(O)CCCC2=C(C(=O)OCC)CC[C@]21C		> 100 µM		> 100 µM		> 100 µM		> 100 µM		> 100 µM		> 100 µM						> 100 µM		
O=c1c2cccc3cccc(c4n1CCN=4)c32		> 100 µM		> 100 µM		> 100 µM				> 100 µM		> 100 µM		> 100 µM		> 100 µM		> 100 µM		> 100 µM
FC(F)(F)C1(Br)C(c2ccccc2)=C1c1ccccc1		43 µM		28.8 µM		33.5 µM		59.2 µM		74.3 µM		40.3 µM		20.2 µM				30 µM		54 µM
Cc1cc(N2CCSCC2)nc(NC2CCCC(Nc3ccnc4cc(Cl)ccc34)C2)n1 (stereo not drawn)	2140 nM	4.13 µM	1720 nM	3.11 µM	1830 nM	3.77 µM	3.26 µM	11.5 µM	1.97 µM	5.39 µM	2060 nM	4.46 µM			2070 nM	4.64 µM			1610 nM	5.13 µM
N#CCN/C=C\C(=O)c1ccc(Cl)cc1	31900 nM	> 100 µM	17600 nM	38.8 µM	37800 nM	> 100 µM	31.4 µM	> 100 µM	31 µM	> 100 µM			29900 nM	> 100 µM	38600 nM	> 100 µM	20 µM	53.9 µM	76900 nM	> 100 µM
COc1ccc2nc3cc([N+](=O)[O-])ccc3c(NCCCN(C)C)c2c1	1710 nM	4.41 µM	187 nM	0.832 µM	67 nM	1.39 µM	0.299 µM	2.61 µM	0.363 µM	3.59 µM	418 nM	3.09 µM	36 nM	1.25 µM	1870 nM	5.72 µM			95.9 nM	0.539 µM
